For six molecules, CC50, Activity and A ctivity results are on record in ChEMBL document CHEMBL1142639, “New triterpenoid saponins from the sponge Melophlus isis” (2000).

≈ marks a conversion by molar mass, not a printed value. Calls of active or inactive are those of the source. No cut-off for these calls is given here.

One assay has as its system K562. The assay is described as follows: Cytotoxicity against human K562 cells. The format is functional. The settings on record: read-out: LC50 (the source's name).
For assay [1], the system named is Photobacterium phosphoreum. Description: Antibacterial activity against Photobacterium phosphoreum at 100 ug/mL by paper disk method. The format is functional, organism-based.
The subject of the next assay is Vibrio harveyi. The assay is described as follows: Antibacterial activity against Vibrio harveyi at 100 ug/mL by paper disk method. The format is functional, organism-based.
In assay [2] the test system is Photobacterium leiognathi. Description: Antibacterial activity against Photobacterium leiognathi at 100 ug/mL by paper disk method. The format is functional, organism-based.

Regarding `CC(=O)N[C@H]1[C@H](O[C@@H]2CO[C@@H](O[C@H]3CC[C@]4(C)C5=C(CC[C@H]4C3(C)C)[C@@H]3CC[C@H]([C@H](C)CC(=O)C=C(C)C)[C@@]3(C)CC5)[C@H](O[C@@H]3O[C@H](CO[C@@H]4O[C@H](CO)[C@@H](O)[C@H](O)[C@H]4O[C@@H]4O[C@H](CO)[C@@H](O)[C@H](O)[C@H]4O)[C@@H](O)[C@H](O)[C@H]3NC(C)=O)[C@H]2O)O[C@H](CO)[C@H](O)[C@@H]1O` [SARASINOSIDE A1], the CC50 in the assay with K562 is 6.5 µg/mL (≈ 5.04 µM).

Regarding `CC(=O)N[C@H]1[C@H](O[C@@H]2CO[C@@H](O[C@H]3CC[C@]4(C)C5=C(CC[C@H]4C3(C)C)C3=CC[C@H]([C@H](C)CC(=O)C=C(C)C)[C@@]3(C)CC5)[C@H](O[C@@H]3O[C@H](CO[C@@H]4O[C@H](CO)[C@@H](O)[C@H](O)[C@H]4O[C@@H]4O[C@H](CO)[C@@H](O)[C@H](O)[C@H]4O)[C@@H](O)[C@H](O)[C@H]3NC(C)=O)[C@H]2O)O[C@H](CO)[C@H](O)[C@@H]1O` [SARASINOSIDE A3], the CC50 in the assay on K562 worked out at 17.1 µg/mL (≈ 13.3 µM).

As to `CC(=O)N[C@H]1[C@H](O[C@@H]2CO[C@@H](O[C@H]3CC[C@@]4(C)[C@@H](CCC5=C6[C@H](O)C[C@H]([C@H](C)CC(=O)C=C(C)C)[C@@]6(C)CC[C@@]54O)C3(C)C)[C@H](O[C@@H]3O[C@H](CO[C@@H]4O[C@H](CO)[C@@H](O)[C@H](O)[C@H]4O[C@@H]4O[C@H](CO)[C@@H](O)[C@H](O)[C@H]4O)[C@@H](O)[C@H](O)[C@H]3NC(C)=O)[C@H]2O)O[C@H](CO)[C@H](O)[C@@H]1O` [SARASINOSIDE H1], the outcome (in assay [1]; in the assay on Vibrio harveyi; in assay [2]) was inactive. In addition, in the assay with K562, the CC50 is more than 100 µg/mL.

In the case of `CO[C@@H]1C[C@H]([C@H](C)CC(=O)C=C(C)C)[C@@]2(C)CC[C@@]3(O)C(=C12)CC[C@H]1C(C)(C)[C@@H](O[C@@H]2OC[C@@H](O[C@@H]4O[C@H](CO)[C@H](O)[C@H](O)[C@H]4NC(C)=O)[C@H](O)[C@H]2O[C@@H]2O[C@H](CO[C@@H]4O[C@H](CO)[C@@H](O)[C@H](O)[C@H]4O[C@@H]4O[C@H](CO)[C@@H](O)[C@H](O)[C@H]4O)[C@@H](O)[C@H](O)[C@H]2NC(C)=O)CC[C@@]13C` [SARASINOSIDE H2], the outcome (in assay [1]; with Vibrio harveyi; in assay [2]) was inactive. In the assay on K562, the CC50 is more than 100 µg/mL.

As for `CC(=O)N[C@H]1[C@H](O[C@@H]2CO[C@@H](O[C@H]3CC[C@@]4(C)[C@@H](CCC5=C6[C@@H](O)C[C@H]([C@H](C)CC(=O)C=C(C)C)[C@@]6(C)CC[C@@]54O)C3(C)C)[C@H](O[C@@H]3O[C@H](CO[C@@H]4O[C@H](CO)[C@@H](O)[C@H](O)[C@H]4O[C@@H]4O[C@H](CO)[C@@H](O)[C@H](O)[C@H]4O)[C@@H](O)[C@H](O)[C@H]3NC(C)=O)[C@H]2O)O[C@H](CO)[C@H](O)[C@@H]1O` [SARASINOSIDE I1], the outcome (in assay [1]; in the assay on Vibrio harveyi) was inactive. Further, the CC50 with K562 is more than 100 µg/mL. Also, the A ctivity entry in assay [2] is “inactive”.

Take `CO[C@H]1C[C@H]([C@H](C)CC(=O)C=C(C)C)[C@@]2(C)CC[C@@]3(O)C(=C12)CC[C@H]1C(C)(C)[C@@H](O[C@@H]2OC[C@@H](O[C@@H]4O[C@H](CO)[C@H](O)[C@H](O)[C@H]4NC(C)=O)[C@H](O)[C@H]2O[C@@H]2O[C@H](CO[C@@H]4O[C@H](CO)[C@@H](O)[C@H](O)[C@H]4O[C@@H]4O[C@H](CO)[C@@H](O)[C@H](O)[C@H]4O)[C@@H](O)[C@H](O)[C@H]2NC(C)=O)CC[C@@]13C` [SARASINOSIDE I2]: the result (in assay [1]; in the assay with Vibrio harveyi; in assay [2]) was inactive. In the assay with K562, the CC50 is more than 100 µg/mL.
